Assay [1] deals with T1, Serine/threonine-protein kinase Nek2 (Homo sapiens, UniProt P51955).
T1 sequence (P51955 whole entry): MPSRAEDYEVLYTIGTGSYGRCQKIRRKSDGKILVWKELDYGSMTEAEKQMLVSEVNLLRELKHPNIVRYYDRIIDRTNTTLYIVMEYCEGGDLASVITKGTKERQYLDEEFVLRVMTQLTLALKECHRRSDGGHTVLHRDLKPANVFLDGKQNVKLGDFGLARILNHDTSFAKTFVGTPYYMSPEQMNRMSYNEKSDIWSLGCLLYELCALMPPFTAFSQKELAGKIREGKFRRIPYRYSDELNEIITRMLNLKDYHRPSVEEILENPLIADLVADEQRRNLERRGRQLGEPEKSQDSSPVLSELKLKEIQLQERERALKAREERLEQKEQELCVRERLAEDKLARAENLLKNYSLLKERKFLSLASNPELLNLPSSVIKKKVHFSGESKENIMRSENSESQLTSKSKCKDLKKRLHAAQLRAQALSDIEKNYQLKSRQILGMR
Kind of assay: Inhibition of human NEK2 by discoverX kinome scan assay.

A short description of assay [2]: Inhibition of human ABL1 pT315I mutant by discoverX kinome scan assay.
The target of assay [3] is T2, Mitogen-activated protein kinase 13 (Homo sapiens, UniProt O15264).
T2 sequence (O15264 whole entry): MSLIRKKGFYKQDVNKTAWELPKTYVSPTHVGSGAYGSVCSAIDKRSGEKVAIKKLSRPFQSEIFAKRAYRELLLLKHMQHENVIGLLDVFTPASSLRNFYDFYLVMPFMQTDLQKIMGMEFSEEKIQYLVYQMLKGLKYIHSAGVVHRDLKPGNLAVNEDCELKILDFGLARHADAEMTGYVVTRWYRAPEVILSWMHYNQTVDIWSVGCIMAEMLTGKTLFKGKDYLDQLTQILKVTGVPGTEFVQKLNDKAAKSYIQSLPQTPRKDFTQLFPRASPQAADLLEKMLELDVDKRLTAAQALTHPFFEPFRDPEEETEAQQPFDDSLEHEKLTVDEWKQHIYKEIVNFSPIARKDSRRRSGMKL
In words: Inhibition of human p38-delta by discoverX kinome scan assay.

Assay [4] can be described thus: Inhibition of human ABL1 pM351T mutant by discoverX kinome scan assay.
The next assay has as its target Myosin-IIIa (Homo sapiens, UniProt Q8NEV4). Kind of assay: Inhibition of human MYO3A by discoverX kinome scan assay.
The target in assay [5] is Serine/threonine-protein kinase MRCK beta (Homo sapiens, UniProt Q9Y5S2). Kind of assay: Inhibition of human MRCKB by discoverX kinome scan assay.
For assay [6], the target named is Phosphatidylinositol 4,5-bisphosphate 3-kinase catalytic subunit beta isoform (Homo sapiens, UniProt P42338). In words: Inhibition of human PIK3CB by discoverX kinome scan assay.
The test system of another assay is KYSE-150 cell line. Kind of assay: Effect on cellular post-translational modifications on histone […] (GKGGKGLGKGGAKR) - K5 acetylated , K8 unmethylated , K12 acetylated, K16 unmethylated in human KYSE-150 cells assessed as relative abundance at 5 by mass spectrometric analysis (reference value: 3+/-1.7). The class given is functional. The conditions noted are these: dose 5 µM.

The nature of assay [7]: Inhibition of human ABL1 pH396P mutant by discoverX kinome scan assay.
The target in assay [8] is Protein kinase C eta type (Homo sapiens, UniProt P24723). In words: Inhibition of human PRKCH by discoverX kinome scan assay.

In ChEMBL document CHEMBL5674866 (J Biol Chem, 2015) one finds IC50 and Activity data, which are given here for one compound.

Sequence of Protein kinase C eta type (P24723 whole entry): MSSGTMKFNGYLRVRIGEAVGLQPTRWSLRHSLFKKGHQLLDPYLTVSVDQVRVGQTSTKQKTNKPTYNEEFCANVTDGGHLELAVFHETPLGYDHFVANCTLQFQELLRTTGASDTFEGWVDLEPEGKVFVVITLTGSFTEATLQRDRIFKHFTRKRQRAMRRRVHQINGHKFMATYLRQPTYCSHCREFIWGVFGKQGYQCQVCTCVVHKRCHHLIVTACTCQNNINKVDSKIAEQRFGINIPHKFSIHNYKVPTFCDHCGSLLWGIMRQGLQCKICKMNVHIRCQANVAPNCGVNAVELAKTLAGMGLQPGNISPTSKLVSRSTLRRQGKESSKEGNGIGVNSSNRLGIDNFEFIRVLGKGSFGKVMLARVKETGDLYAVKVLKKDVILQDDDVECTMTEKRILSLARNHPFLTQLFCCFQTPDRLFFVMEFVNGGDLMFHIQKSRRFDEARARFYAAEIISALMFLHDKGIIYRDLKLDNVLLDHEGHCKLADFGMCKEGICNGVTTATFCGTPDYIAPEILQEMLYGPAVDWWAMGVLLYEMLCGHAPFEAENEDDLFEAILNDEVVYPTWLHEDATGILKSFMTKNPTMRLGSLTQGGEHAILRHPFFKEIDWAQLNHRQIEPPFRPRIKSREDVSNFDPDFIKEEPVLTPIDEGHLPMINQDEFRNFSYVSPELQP
Sequence of Serine/threonine-protein kinase MRCK beta (Q9Y5S2 whole entry, canonical isoform): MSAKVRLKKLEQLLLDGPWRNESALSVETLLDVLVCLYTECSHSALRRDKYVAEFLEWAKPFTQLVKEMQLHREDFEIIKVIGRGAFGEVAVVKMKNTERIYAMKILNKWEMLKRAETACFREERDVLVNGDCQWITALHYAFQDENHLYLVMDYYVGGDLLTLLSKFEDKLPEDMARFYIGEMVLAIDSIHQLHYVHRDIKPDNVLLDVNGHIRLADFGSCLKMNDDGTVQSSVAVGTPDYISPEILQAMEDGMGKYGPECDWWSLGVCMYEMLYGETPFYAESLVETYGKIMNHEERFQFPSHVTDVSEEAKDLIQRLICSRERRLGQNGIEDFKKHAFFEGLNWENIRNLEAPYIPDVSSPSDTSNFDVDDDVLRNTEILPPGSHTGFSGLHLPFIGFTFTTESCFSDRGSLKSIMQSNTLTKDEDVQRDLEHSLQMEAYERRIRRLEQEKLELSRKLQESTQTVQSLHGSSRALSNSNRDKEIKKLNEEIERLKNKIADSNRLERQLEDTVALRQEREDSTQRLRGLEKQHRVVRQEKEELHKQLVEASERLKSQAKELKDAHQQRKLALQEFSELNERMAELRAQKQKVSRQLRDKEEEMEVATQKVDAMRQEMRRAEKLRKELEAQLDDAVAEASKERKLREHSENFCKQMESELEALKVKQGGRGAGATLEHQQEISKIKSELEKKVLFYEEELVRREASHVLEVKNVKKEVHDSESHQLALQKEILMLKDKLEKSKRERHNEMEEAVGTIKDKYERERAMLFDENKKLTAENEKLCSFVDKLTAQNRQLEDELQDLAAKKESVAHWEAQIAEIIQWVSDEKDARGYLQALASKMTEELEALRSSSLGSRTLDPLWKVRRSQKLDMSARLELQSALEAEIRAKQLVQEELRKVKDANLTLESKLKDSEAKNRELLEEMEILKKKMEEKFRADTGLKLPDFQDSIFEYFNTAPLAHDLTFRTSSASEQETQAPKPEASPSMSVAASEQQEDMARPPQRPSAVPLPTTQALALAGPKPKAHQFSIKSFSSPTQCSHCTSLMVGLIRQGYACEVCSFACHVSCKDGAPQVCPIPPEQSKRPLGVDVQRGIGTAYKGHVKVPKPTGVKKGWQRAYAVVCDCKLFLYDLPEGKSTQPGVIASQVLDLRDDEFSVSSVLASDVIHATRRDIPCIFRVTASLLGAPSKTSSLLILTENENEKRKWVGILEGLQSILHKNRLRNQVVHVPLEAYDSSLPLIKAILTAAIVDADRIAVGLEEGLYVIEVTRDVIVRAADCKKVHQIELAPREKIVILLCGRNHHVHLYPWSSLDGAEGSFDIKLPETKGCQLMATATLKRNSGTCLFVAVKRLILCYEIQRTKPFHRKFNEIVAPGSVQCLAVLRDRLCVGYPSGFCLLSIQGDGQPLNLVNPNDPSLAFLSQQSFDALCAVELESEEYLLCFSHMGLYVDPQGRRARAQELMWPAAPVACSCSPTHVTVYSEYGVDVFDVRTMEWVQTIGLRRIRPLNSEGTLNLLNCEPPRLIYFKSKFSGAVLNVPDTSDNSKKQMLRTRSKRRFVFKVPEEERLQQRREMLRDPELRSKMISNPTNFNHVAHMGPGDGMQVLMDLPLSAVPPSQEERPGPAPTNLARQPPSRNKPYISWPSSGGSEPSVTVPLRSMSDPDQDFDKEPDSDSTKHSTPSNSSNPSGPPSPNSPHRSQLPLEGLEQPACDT
Sequence of Phosphatidylinositol 4,5-bisphosphate 3-kinase catalytic subunit beta isoform (P42338 whole entry, canonical isoform): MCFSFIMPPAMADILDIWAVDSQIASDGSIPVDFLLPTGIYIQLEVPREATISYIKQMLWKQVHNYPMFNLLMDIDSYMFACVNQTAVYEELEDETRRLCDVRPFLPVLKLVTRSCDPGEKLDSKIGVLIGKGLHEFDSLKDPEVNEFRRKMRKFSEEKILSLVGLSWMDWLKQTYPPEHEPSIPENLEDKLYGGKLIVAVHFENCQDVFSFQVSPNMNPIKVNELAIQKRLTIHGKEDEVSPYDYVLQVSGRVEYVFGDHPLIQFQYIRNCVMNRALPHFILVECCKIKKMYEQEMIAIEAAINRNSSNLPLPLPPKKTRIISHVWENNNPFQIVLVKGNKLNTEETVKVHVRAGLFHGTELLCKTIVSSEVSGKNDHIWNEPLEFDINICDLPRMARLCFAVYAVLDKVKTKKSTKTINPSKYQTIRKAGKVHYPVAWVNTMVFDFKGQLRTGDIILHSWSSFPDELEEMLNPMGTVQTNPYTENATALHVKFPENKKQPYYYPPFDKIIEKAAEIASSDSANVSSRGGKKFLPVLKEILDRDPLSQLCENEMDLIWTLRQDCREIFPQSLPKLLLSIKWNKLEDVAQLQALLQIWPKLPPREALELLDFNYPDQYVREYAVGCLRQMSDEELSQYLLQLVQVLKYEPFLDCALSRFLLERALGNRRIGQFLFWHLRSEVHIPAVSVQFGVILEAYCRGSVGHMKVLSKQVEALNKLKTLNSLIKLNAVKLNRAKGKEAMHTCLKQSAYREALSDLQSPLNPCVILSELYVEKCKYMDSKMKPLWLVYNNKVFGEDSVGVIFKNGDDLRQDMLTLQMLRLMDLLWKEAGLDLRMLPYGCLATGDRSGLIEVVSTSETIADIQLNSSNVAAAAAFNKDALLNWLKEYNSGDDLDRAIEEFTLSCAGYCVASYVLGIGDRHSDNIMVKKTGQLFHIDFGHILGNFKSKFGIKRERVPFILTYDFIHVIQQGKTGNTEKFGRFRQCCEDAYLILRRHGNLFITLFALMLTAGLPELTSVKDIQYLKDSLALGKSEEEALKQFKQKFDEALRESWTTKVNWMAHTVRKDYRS
Sequence of Myosin-IIIa (Q8NEV4 whole entry): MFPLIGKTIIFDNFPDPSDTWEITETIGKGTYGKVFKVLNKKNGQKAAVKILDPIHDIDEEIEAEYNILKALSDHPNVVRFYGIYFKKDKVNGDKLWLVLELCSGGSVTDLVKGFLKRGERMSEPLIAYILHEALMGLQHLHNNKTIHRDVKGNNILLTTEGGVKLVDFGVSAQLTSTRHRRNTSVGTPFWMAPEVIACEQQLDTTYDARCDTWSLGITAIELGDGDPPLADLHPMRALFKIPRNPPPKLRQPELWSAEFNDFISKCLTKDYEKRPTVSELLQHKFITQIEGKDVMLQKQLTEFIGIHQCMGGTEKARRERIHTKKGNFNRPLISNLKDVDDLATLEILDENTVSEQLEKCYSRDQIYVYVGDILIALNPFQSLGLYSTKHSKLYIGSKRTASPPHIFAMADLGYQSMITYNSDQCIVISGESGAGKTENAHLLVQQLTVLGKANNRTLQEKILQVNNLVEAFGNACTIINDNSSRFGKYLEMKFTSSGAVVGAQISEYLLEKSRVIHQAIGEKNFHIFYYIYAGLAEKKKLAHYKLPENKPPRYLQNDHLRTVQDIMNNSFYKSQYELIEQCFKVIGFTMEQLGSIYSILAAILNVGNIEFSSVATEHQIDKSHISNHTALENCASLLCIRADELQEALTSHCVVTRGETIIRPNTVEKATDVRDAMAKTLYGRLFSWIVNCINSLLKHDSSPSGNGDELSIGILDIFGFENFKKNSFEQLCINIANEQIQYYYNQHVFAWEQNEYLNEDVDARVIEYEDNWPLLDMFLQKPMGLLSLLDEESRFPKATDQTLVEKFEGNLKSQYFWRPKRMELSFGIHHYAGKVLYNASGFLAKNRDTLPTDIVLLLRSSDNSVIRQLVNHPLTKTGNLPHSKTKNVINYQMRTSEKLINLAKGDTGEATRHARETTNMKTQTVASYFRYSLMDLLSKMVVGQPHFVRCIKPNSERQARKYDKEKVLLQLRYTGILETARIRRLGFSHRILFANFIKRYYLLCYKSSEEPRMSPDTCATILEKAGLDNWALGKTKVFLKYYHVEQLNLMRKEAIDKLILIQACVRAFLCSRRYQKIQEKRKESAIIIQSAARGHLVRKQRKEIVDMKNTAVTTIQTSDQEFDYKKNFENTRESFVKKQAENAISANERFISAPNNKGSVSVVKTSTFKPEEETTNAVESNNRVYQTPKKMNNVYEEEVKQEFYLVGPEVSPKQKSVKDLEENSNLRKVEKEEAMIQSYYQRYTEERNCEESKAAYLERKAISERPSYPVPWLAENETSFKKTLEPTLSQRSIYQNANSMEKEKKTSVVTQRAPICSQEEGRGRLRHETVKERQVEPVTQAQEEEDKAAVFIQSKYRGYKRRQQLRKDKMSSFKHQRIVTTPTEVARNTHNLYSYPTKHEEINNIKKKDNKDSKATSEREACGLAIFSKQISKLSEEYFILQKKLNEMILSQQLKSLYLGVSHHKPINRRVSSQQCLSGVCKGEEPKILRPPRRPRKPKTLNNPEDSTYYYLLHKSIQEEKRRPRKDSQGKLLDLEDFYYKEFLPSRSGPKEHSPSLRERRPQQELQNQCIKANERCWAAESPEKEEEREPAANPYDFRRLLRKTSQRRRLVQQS

As to `Cc1cn(CCN2CCN(c3ccccc3-c3cc(C#N)cc(C(=O)NCCCN4CCCC4)c3)CC2)c2ccccc12`, the 50% inhibitory concentration (IC50) (in assay [1]; in [2]; in assay [3]; in assay [4]; on Myosin-IIIa; in assay [5]) was above 20 µM each time. The IC50 in assay [6], in assay [7] and in assay [8] was above 20 µM each time. Also, the Activity in the assay on KYSE-150 cell line was 1.6.
